Test results reported in article PMC10866072, “Design, synthesis, molecular modelling and biological evaluation of novel 6-amino-5-cyano-2-thiopyrimidine derivatives as potent anticancer agents against leukemia and apoptotic inducers” (Journal of Enzyme Inhibition and Medicinal Chemistry, 2024).

Columns and labels:
HCC-2998 = format: cell-based; conditions: one dose 10^-5 M, 48 h
M14 = format: cell-based; conditions: one dose 10^-5 M, 48 h
SN12C = format: cell-based, human; conditions: one dose 10^-5 M, 48 h
HT29 = format: cell-based; conditions: 48 h
NCI-H226 = format: cell-based; conditions: one dose 10^-5 M, 48 h
786-0 = format: cell-based; conditions: one dose 10^-5 M, 48 h
HOP-62 = format: cell-based; conditions: one dose 10^-5 M, 48 h
HOP-92 = format: cell-based; conditions: one dose 10^-5 M, 48 h
U251 = format: cell-based; conditions: 48 h
UACC-257 = format: cell-based; conditions: one dose 10^-5 M, 48 h
MDA-MB-468 = format: cell-based; conditions: one dose 10^-5 M, 48 h
SNB-19 = format: cell-based; conditions: one dose 10^-5 M, 48 h
COLO 205 = format: cell-based; conditions: one dose 10^-5 M, 48 h
OVCAR-8 = format: cell-based; conditions: one dose 10^-5 M, 48 h
HL-60(TB) = format: cell-based; conditions: one dose 10^-5 M, 48 h
T-47D = format: cell-based; conditions: one dose 10^-5 M, 48 h
OVCAR-5 = format: cell-based; conditions: one dose 10^-5 M, 48 h
SF-295 = format: cell-based; conditions: one dose 10^-5 M, 48 h
DU-145 = format: cell-based; conditions: one dose 10^-5 M, 48 h
OVCAR-3 = format: cell-based; conditions: one dose 10^-5 M, 48 h
SK-OV-3 = format: cell-based; conditions: one dose 10^-5 M, 48 h
PC-3 = format: cell-based; conditions: one dose 10^-5 M, 48 h
SF-268 = format: cell-based; conditions: one dose 10^-5 M, 48 h
NCI-H522 = format: cell-based; conditions: one dose 10^-5 M, 48 h
MDA-MB-435 = format: cell-based; conditions: one dose 10^-5 M, 48 h
OVCAR-4 = format: cell-based; conditions: one dose 10^-5 M, 48 h
SK-MEL-5 = format: cell-based; conditions: one dose 10^-5 M, 48 h
MALME-3M = format: cell-based; conditions: one dose 10^-5 M, 48 h
K-562 = format: cell-based; conditions: 48 h
SK-MEL-2 = format: cell-based; conditions: one dose 10^-5 M, 48 h
NCI-H460 = format: cell-based; conditions: one dose 10^-5 M, 48 h
[1] = tested on: full NCI 60 cell lines panel; conditions: for activity on all 60 cancer cell lines tested (in words): one dose
LOX IMVI = format: cell-based; conditions: one dose 10^-5 M, 48 h
RPMI-8226 = format: cell-based; conditions: one dose 10^-5 M, 48 h
SK-MEL-28 = format: cell-based; conditions: one dose 10^-5 M, 48 h
ACHN = format: cell-based; conditions: one dose 10^-5 M, 48 h
TK-10 = format: cell-based; conditions: one dose 10^-5 M, 48 h
UO-31 = format: cell-based; conditions: one dose 10^-5 M, 48 h
SR = format: cell-based; conditions: one dose 10^-5 M, 48 h
NCI/ADR-RES = format: cell-based; conditions: one dose 10^-5 M, 48 h
MDA-MB-231/ATCC = format: cell-based; conditions: one dose 10^-5 M, 48 h
HS 578T = format: cell-based; conditions: one dose 10^-5 M, 48 h, HS 578T
MCF7 = format: cell-based; conditions: one dose 10^-5 M, 48 h
HCT-116 = format: cell-based; conditions: one dose 10^-5 M, 48 h
MOLT-4 = format: cell-based; conditions: one dose 10^-5 M, 48 h
NCI-H23 = format: cell-based; conditions: one dose 10^-5 M, 48 h
A549/ATCC = format: cell-based; conditions: one dose 10^-5 M, 48 h
IGROV1 = format: cell-based; conditions: 48 h
UACC-62 = format: cell-based; conditions: one dose 10^-5 M, 48 h
BT-549 = format: cell-based; conditions: one dose 10^-5 M, 48 h
SF-539 = format: cell-based; conditions: one dose 10^-5 M, 48 h
CAKI-1 = format: cell-based; conditions: one dose 10^-5 M, 48 h
A498 = format: cell-based; conditions: one dose 10^-5 M, 48 h
EKVX = format: cell-based; conditions: one dose 10^-5 M, 48 h
SW-620 = format: cell-based; conditions: one dose 10^-5 M, 48 h
HCT-15 = format: cell-based; conditions: one dose 10^-5 M, 48 h
SNB-75 = format: cell-based; conditions: one dose 10^-5 M, 48 h
CCRF-CEM = format: cell-based; conditions: one dose 10^-5 M, 48 h
KM12 = format: cell-based; conditions: one dose 10^-5 M, 48 h
[2] = Homo sapiens, read-out: % growth

4-Amino-6-[4-(dimethylamino)phenyl]-2-mercaptopyrimidine-5-carboximidohydrazide [Compound 2a]
% growth (HCC-2998): 114.82% | % growth (M14): 103.05% | % growth (SN12C): 106.67% | % growth (HT29; one dose 10^-5 M): 107.55% | % growth (NCI-H226): 96.50% | % growth (786-0): 105.86% | % growth (HOP-62): 107.78% | % growth (HOP-92): 114.12% | % growth (U251; one dose 10^-5 M): 106.99% | % growth (UACC-257): 109.40% | % growth (MDA-MB-468): 117.68% | % growth (SNB-19): 101.46% | % growth (COLO 205): 134.76% | % growth (OVCAR-8): 116.82% | % growth (HL-60(TB)): 99.62% | % growth (T-47D): 99.52% | % growth (OVCAR-5): 116.97% | % growth (SF-295): 112.06% | % growth (DU-145): 111.10% | % growth (OVCAR-3): 105.79% | % growth (SK-OV-3): 120.70% | % growth (PC-3): 87.24% | % growth (SF-268): 101.57% | % growth (NCI-H522): 100.34% | % growth (MDA-MB-435): 114.53% | % growth (OVCAR-4): 96.78% | % growth (SK-MEL-5): 104.41% | % growth (MALME-3M): 100.97% | % growth (K-562; one dose 10^-5 M): 103.46% | % growth (SK-MEL-2): 117.18% | % growth (NCI-H460): 102.69% | activity on all 60 cancer cell lines tested (in words) [1]: weak activity | Mean % growth ([1]; one dose 10^-5 M, 48 h, mean over all cell lines): 105.50% | % growth (LOX IMVI): 101.99% | % growth (RPMI-8226): 98.02% | % growth (SK-MEL-28): 108.97% | % growth (ACHN): 99.26% | % growth (TK-10): 112.54% | % growth (UO-31): 69.66% | % growth (SR): 102.70% | % growth (NCI/ADR-RES): 104.56% | % growth (MDA-MB-231/ATCC): 103.57% | % growth (HS 578T): 111.82% | % growth (MCF7): 86.35% | % growth (HCT-116): 103.97% | % growth (MOLT-4): 109.54% | % growth (NCI-H23): 104.78% | % growth (A549/ATCC): 107.34% | % growth (IGROV1; one dose 10^-5 M): 109.01% | % growth (UACC-62): 96.91% | % growth (BT-549): 106.15% | % growth (SF-539): 107.89% | % growth (CAKI-1): 93.33% | % growth (A498): 129.90% | % growth (EKVX): 95.76% | % growth (SW-620): 105.68% | % growth (HCT-15): 103.47% | % growth (SNB-75): 115.82% | % growth (CCRF-CEM): 91.59% | % growth (KM12): 103.89%

CN(C)c1ccc(-c2nc(S)nc(N)c2C#N)cc1 [Compound 1a]
% growth at 10 µM (HCC-2998; Homo sapiens): 105% | % growth at 10 µM (M14; Homo sapiens): 102% | % growth at 10 µM (SN12C; Homo sapiens): 90.7% | % growth at 10 µM (HT29; Homo sapiens, HT-29, one dose 10^-5 M): 109% | % growth at 10 µM (NCI-H226; Homo sapiens): 96% | % growth at 10 µM (786-0; Homo sapiens): 87.9% | % growth at 10 µM (HOP-62; Homo sapiens): 117% | % growth at 10 µM (HOP-92; Homo sapiens): 94% | % growth at 10 µM (U251; Homo sapiens, U-251, one dose 10^-5 M): 90.6% | percent cell growth at 10 µM (UACC-257; Homo sapiens): 102% | percent cell growth at 10 µM (MDA-MB-468; Homo sapiens): 60.2% | activity at 10 µM (SNB-19; [2]): 89.9% | % growth at 10 µM (COLO 205; Homo sapiens): 123% | % growth of cells at 10 µM (OVCAR-8; Homo sapiens): 103% | % growth at 10 µM (HL-60(TB); Homo sapiens): 94% | activity at 10 µM (T-47D; Homo sapiens, T47D, read-out: % growth): 75.6% | percent cell growth at 10 µM (OVCAR-5; Homo sapiens): 108% | % cell growth at 10 µM (SF-295; Homo sapiens): 103% | % growth at 10 µM (DU-145; Homo sapiens): 102% | % growth at 10 µM (OVCAR-3; Homo sapiens): 94.4% | % growth at 10 µM (SK-OV-3; Homo sapiens): 121% | percent cell growth at 10 µM (PC-3; Homo sapiens): 87.8% | activity at 10 µM (SF-268; [2]): 104% | % growth at 10 µM (NCI-H522; Homo sapiens): 79.7% | activity at 10 µM (MDA-MB-435; [2]): 103% | % growth at 10 µM (OVCAR-4; Homo sapiens): 101% | activity at 10 µM (SK-MEL-5; [2]): 88.7% | % growth at 10 µM (MALME-3M; Homo sapiens): 106% | % growth at 10 µM (K-562; Homo sapiens, K562, one dose 10^-5 M): 89.8% | % growth at 10 µM (SK-MEL-2; Homo sapiens): 107% | activity at 10 µM (NCI-H460; [2]): 113% | activity at 10 µM ([1]; Homo sapiens, 60 cell, 48 h, read-out: Mean % growth): 96.6% | activity on all 60 cancer cell lines tested (in words) [1]: weak activity | activity at 10 µM (LOX IMVI; [2]): 85.6% | % growth at 10 µM (RPMI-8226; Homo sapiens): 80.5% | % cell growth at 10 µM (SK-MEL-28; Homo sapiens): 103% | % growth at 10 µM (ACHN; Homo sapiens): 98% | % cell growth at 10 µM (TK-10; Homo sapiens): 111% | % cell growth at 10 µM (UO-31; Homo sapiens, UO-31, 48 h): 83.8% | percent cell growth at 10 µM (SR; Homo sapiens): 83% | cell growth percent at 10 µM (NCI/ADR-RES; Homo sapiens): 91.2% | % growth at 10 µM (MDA-MB-231/ATCC; Homo sapiens): 96% | activity at 10 µM (HS 578T; [2]): 100% | activity at 10 µM (MCF7; [2]): 80.4% | activity at 10 µM (HCT-116; [2]): 91.9% | activity at 10 µM (MOLT-4; [2]): 92.6% | activity at 10 µM (NCI-H23; [2]): 95% | % growth at 10 µM (A549/ATCC; Homo sapiens): 96.5% | activity at 10 µM (IGROV1; Homo sapiens, IGROV-1, one dose 10^-5 M, read-out: % growth): 100% | % growth at 10 µM (UACC-62; Homo sapiens): 77.2% | % cell growth at 10 µM (BT-549; Homo sapiens): 85.4% | % growth at 10 µM (SF-539; Homo sapiens): 98.4% | % growth at 10 µM (CAKI-1; Homo sapiens, CAKI-1, 48 h): 92.4% | % growth at 10 µM (A498; Homo sapiens): 131% | % cell growth at 10 µM (EKVX; Homo sapiens): 87.9% | % growth at 10 µM (SW-620; Homo sapiens): 113% | activity at 10 µM (HCT-15; [2]): 86.4% | % growth at 10 µM (SNB-75; Homo sapiens): 107% | % cell growth at 10 µM (CCRF-CEM; Homo sapiens): 90.9% | % growth at 10 µM (KM12; Homo sapiens): 92.3%
